Results from ChEMBL document CHEMBL1144501, “Synthesis, characterization and biological activity of complexes of lanthanum(III) with 2-(1'-phenyl- 2'-carboxyl-3'-aza-n-butyl)-1,10-phenanthroline and 2-(1'-p-phenol-2'-carboxyl-3'-aza-n-butyl)-1,10-phenanthroline” (Bioorg Med Chem, 2007).

Assays:
Type in all cases: cell-based
[1] = Cytotoxicity against human Bel7402 cells after 72 hrs; conditions: Bel-7402, 72 h
HeLa = test: Cytotoxicity against human HeLa cells after 72 hrs
[2] = Cytotoxicity against human BGC823 cells after 72 hrs; conditions: BGC-823, 72 h
MDA-MB-435 = test: Cytotoxicity against human MDA-MB-435 cells after 72 hrs; conditions: MDA-MB-435, 72 h
HL-60 = test: Cytotoxicity against human HL60 cells after 72 hrs; conditions: HL-60, 72 h
[3] = Cytotoxicity against human PC-3MIE8 cells after 72 hrs; conditions: PC-3MIE8, 72 h

Measured: IC50

O=C(O)C(Cc1ccc(O)cc1)NCc1ccc2ccc3cccnc3c2n1 (configuration not stated)
> 100 µM: all assays above

O=C(O)C(Cc1ccccc1)NCc1ccc2ccc3cccnc3c2n1 (configuration not stated)
> 100 µM: all assays above
